# Experimental data taken from the supplement of paper PMC10307832.
# Experiments:
# Assay in all cases: relative viability (nuclei count vs DMSO), 5 days (fraction); higher = more cells survive
# Avagacestat + Foretinib = compound: NC(=O)[C@@H](CCC(F)(F)F)N(Cc1ccc(-c2ncon2)cc1F)S(=O)(=O)c1ccc(Cl)cc1 [Avagacestat] + COc1cc2c(Oc3ccc(NC(=O)C4(C(=O)Nc5ccc(F)cc5)CC4)cc3F)ccnc2cc1OCCCN1CCOCC1 [Foretinib] (partner 0.25 µM)
# In short: (§1)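 Each reported value is a median over duplicate plates. It expresses relative viability: treated-well nuclei count divided by vehicle-well nuclei count. Lung cancer cell lines in 1536-well plates were dosed by pin tool a day after seeding, alone with one drug or with a fixed anchor-drug dose plus five library-drug doses (not always all listed) in √10 steps, and nuclei were counted after 5 days.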
# Avagacestat + Dasatinib = compound: NC(=O)[C@@H](CCC(F)(F)F)N(Cc1ccc(-c2ncon2)cc1F)S(=O)(=O)c1ccc(Cl)cc1 [Avagacestat] + Cc1nc(Nc2ncc(C(=O)Nc3c(C)cccc3Cl)s2)cc(N2CCN(CCO)CC2)n1 [Dasatinib] (partner 0.075 µM)
# In short: as §1
# Avagacestat + Decitabine = compound: NC(=O)[C@@H](CCC(F)(F)F)N(Cc1ccc(-c2ncon2)cc1F)S(=O)(=O)c1ccc(Cl)cc1 [Avagacestat] + Nc1ncn([C@H]2C[C@H](O)[C@@H](CO)O2)c(=O)n1 [Decitabine] (partner 2 µM)
# In short: as §1
# Avagacestat + Luminespib = compound: NC(=O)[C@@H](CCC(F)(F)F)N(Cc1ccc(-c2ncon2)cc1F)S(=O)(=O)c1ccc(Cl)cc1 [Avagacestat] + CCNC(=O)c1noc(-c2cc(C(C)C)c(O)cc2O)c1-c1ccc(CN2CCOCC2)cc1 [Luminespib] (partner 0.01 µM)
# In short: as §1
Cell Line,relative viability (Avagacestat + Foretinib; first compound 0.08 µM),relative viability (Avagacestat + Foretinib; first compound 0.253 µM),relative viability (Avagacestat + Foretinib; first compound 0.8 µM),relative viability (Avagacestat + Foretinib; first compound 2.53 µM),relative viability (Avagacestat + Foretinib; first compound 8 µM),relative viability (Avagacestat + Dasatinib; first compound 0.08 µM),relative viability (Avagacestat + Dasatinib; first compound 0.253 µM),relative viability (Avagacestat + Dasatinib; first compound 0.8 µM),relative viability (Avagacestat + Dasatinib; first compound 2.53 µM),relative viability (Avagacestat + Dasatinib; first compound 8 µM),relative viability (Avagacestat + Decitabine; first compound 0.08 µM),relative viability (Avagacestat + Decitabine; first compound 0.253 µM),relative viability (Avagacestat + Decitabine; first compound 0.8 µM),relative viability (Avagacestat + Decitabine; first compound 2.53 µM),relative viability (Avagacestat + Decitabine; first compound 8 µM),relative viability (Avagacestat + Luminespib; first compound 0.08 µM),relative viability (Avagacestat + Luminespib; first compound 0.253 µM),relative viability (Avagacestat + Luminespib; first compound 0.8 µM),relative viability (Avagacestat + Luminespib; first compound 2.53 µM),relative viability (Avagacestat + Luminespib; first compound 8 µM)
HCC-366,1.01,1.05,0.944,1.01,1.04,0.842,0.981,0.676,0.544,0.601,0.463,0.344,0.36,0.306,0.271,–,–,–,–,–
HCC-827,1.08,1.12,1.15,1,1.03,0.313,0.277,0.226,0.184,0.244,0.328,0.313,0.327,0.329,0.296,0.711,0.927,0.586,0.324,0.578
HOP-62,1.29,1.2,1.17,0.948,0.996,0.701,0.63,0.626,0.502,0.484,0.211,0.229,0.194,0.221,0.218,0.988,1.09,1.01,0.889,0.83
IA-LM,1.76,1.68,1.71,1.37,1.4,–,–,–,–,–,–,–,–,–,–,–,–,–,–,–
LC-2-ad,1,1.03,0.914,0.854,0.868,0.558,0.489,0.646,0.447,0.343,0.837,0.839,0.867,0.833,0.776,1.18,1.05,1.18,0.948,1.14
LCLC-97TM1,0.977,0.916,0.894,0.92,0.944,0.945,0.86,0.757,0.866,0.706,0.25,0.214,0.229,0.217,0.203,0.849,1.03,0.837,0.705,0.718
LCLC-103H,0.803,0.849,0.757,0.56,0.784,0.456,0.46,0.508,0.368,0.678,0.753,0.76,0.776,0.561,0.583,1.1,1.27,0.979,0.808,0.851
LK-2,1.72,1.7,1.07,1.07,0.93,0.26,0.224,0.247,0.271,0.267,0.413,0.269,0.256,–,0.291,0.185,0.176,0.198,0.154,0.169
LOU-NH91,0.925,0.916,0.974,0.886,0.893,0.612,0.509,0.618,0.443,0.493,0.868,0.812,0.84,0.807,0.79,0.311,0.341,0.31,0.331,0.342
LU99A,0.807,0.875,0.925,0.837,0.786,0.483,0.542,0.455,0.444,0.471,0.835,0.98,0.964,0.772,0.816,0.308,0.199,0.305,0.247,0.213
LXF-289,1.04,0.957,0.992,0.982,0.893,0.196,0.183,0.168,0.191,0.152,0.359,0.368,0.408,0.347,0.331,0.794,0.675,0.912,0.686,0.603
NCI-H23,1.11,1.17,0.925,1.14,0.93,0.859,0.875,0.937,0.733,0.912,0.416,0.316,0.308,0.328,0.272,0.229,0.235,0.215,–,0.223
NCI-H322M,0.969,0.935,1.04,0.728,0.774,0.281,0.242,0.247,0.251,0.257,0.736,0.626,0.729,0.629,0.611,0.862,0.875,0.927,0.695,0.638
NCI-H522,–,–,–,–,–,0.942,0.886,0.861,0.927,1.07,0.782,0.674,0.681,0.606,0.614,1.08,1.12,1.03,1.21,1.15
NCI-H1299,1.07,1.12,1.15,1.09,1.12,–,–,–,–,–,–,–,–,–,–,–,–,–,–,–
NCI-H1563,1.1,0.999,0.879,0.803,0.842,0.53,0.455,0.484,0.453,0.442,–,–,–,–,–,0.552,0.558,0.575,0.503,0.543
NCI-H1648,–,–,–,–,–,–,–,–,–,–,0.469,0.392,0.265,0.363,0.37,–,–,–,–,–
NCI-H1703,0.315,0.318,0.384,0.338,0.308,–,–,–,–,–,–,–,–,–,–,–,–,–,–,–
NCI-H1792,–,–,–,–,–,1.33,–,0.666,–,0.706,0.722,0.561,0.618,0.487,0.426,0.649,0.478,0.522,0.414,0.33
NCI-H2228,1.07,1.1,0.941,0.773,0.793,0.546,0.426,0.435,0.408,0.474,–,–,–,–,–,0.221,0.117,0.179,0.132,0.108
